From patent US20260274839A1, “COMPOUND AND USE THEREOF IN TREATING HUMAN DIHYDROOROTATE DEHYDROGENASE (hDHODH)-MEDIATED DISEASES” (SICHUAN UNIVERSITY, priority 2023, published 2026)

Target: hDHODH (Homo sapiens, UniProt Q02127)
Assay: Determination of hDHODH enzymatic inhibitory activity
Type: biochemical
Conditions: compound final concentration 1 μM; purified hDHODH 40 nM; absorbance 600 nm
Description: Determination of hDHODH Enzymatic Inhibitory Activity of Compounds
Assay buffer preparation: 100 mM HEPES buffer, 150 mM NaCl, 10% glycerol, and 0.1% Triton X-100 were mixed, adjusted to pH-8.0. A resulting mixture was diluted with Milli-Q water, and then stored at 4° C. A total volume of the enzyme activity detection system was 60 μL. The procedure was performed as follows: 1 μL of the small-molecule solution (with a final concentration of 1 μM) was added to a 96-well enzyme plate. 39 μL of a mixture containing the purified hDHODH protein (with a final concentration of 40 nM), 2,6-dichloroindophenol sodium salt (with a final concentration of 100 μM), coenzyme Q (CoQ, with a final concentration of 20 μM) were added thereto. The plate was protected from light and incubated at 37° C. with gentle shaking for 30 min. After the incubation was completed, 20 μL of dihydroorotate (DHO, with a final concentration of 200 μM) was added to each well. Absorbance was immediately measured using a microplate reader having the following procedure: kinetic assay: wavelength: 600 nm, total duration: 10 min, interval: every 20 s. Controls: negative control: Dimethyl sulfoxide (DMSO) (equal volume) without inhibitor; blank control: ultra-pure water (equal volume) without DHO substrate. All assays were conducted in triplicate. […]

Sequence of hDHODH (Q02127 whole entry): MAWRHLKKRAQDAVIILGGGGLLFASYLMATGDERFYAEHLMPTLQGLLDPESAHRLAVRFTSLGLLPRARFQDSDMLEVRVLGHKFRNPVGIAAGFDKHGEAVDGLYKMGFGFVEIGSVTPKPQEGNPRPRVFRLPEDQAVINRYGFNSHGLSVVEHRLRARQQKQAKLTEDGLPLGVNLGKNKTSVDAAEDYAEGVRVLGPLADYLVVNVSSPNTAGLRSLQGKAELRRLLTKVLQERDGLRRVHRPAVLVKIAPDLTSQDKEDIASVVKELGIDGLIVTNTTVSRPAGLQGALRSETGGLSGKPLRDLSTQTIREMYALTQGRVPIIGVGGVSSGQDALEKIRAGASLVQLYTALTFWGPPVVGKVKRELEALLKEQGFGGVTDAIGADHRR

- inhibition at 1 µM: 48.3%
SMILES: Fc1ccccc1Cn1nc(-c2ccc(C3CC3)cn2)c2cccnc21 [Compound D11]
